{
  "source": "PubChem BioAssay AID256",
  "about": "(DTP/NCI, 2004)",
  "system": "CD2F1 mice, L1210 leukemia ip, survival T/C",
  "test": "NCI In Vivo Anticancer Drug Screen. Data for tumor model L1210 Leukemia (intraperitoneal) in CD2F1 (CDF1) mice",
  "conditions": "higher = longer survival",
  "procedure,_shortened": "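Each value reflects a quotient of treated over vehicle control outcomes in mice with a transplanted tumor.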",
  "key": {"[1]": {"conditions": "endpoint: mean survival time, dose: 100.0 mg/kg/injection, schedule: Q01DX001 (ip), vehicle: saline with Tween-80"}, "[2]": {"conditions": "endpoint: mean survival time, dose: 200.0 mg/kg/injection, schedule: Q01DX001 (ip), vehicle: saline with Tween-80"}, "[3]": {"conditions": "endpoint: mean survival time, dose: 400.0 mg/kg/injection, schedule: Q01DX001 (ip), vehicle: saline with Tween-80"}, "[4]": {"conditions": "endpoint: mean survival time, dose: 100.0 mg/kg/injection, schedule: Q04DX003 (ip), vehicle: saline with Tween-80"}, "[5]": {"conditions": "endpoint: mean survival time, dose: 200.0 mg/kg/injection, schedule: Q04DX003 (ip), vehicle: saline with Tween-80"}},
  "note": "“And” between values parts separate entries of the source, which are not always exact repeats. Equal entries are not always repeated. Inconclusive results and toxic doses are left out.",
  "data": [
    {"smiles": "O=C(c1ccccc1)C1(Br)CCCCC1", "values": [
      {"measurement": "T/C", "setting": "endpoint: mean survival time, dose: 50.0 mg/kg/injection, schedule: Q04DX003 (ip), vehicle: saline", "result": "95 % of control"},
      {"measurement": "T/C", "setting": "endpoint: mean survival time, dose: 100.0 mg/kg/injection, schedule: Q04DX003 (ip), vehicle: Klucel (hydroxypropylcellulose) (HPC)", "result": "101 % of control"},
      {"measurement": "T/C", "setting": "endpoint: mean survival time, dose: 100.0 mg/kg/injection, schedule: Q04DX003 (ip), vehicle: saline", "result": "96 % of control"},
      {"measurement": "T/C", "setting": "endpoint: mean survival time, dose: 200.0 mg/kg/injection, schedule: Q04DX003 (ip), vehicle: Klucel (hydroxypropylcellulose) (HPC)", "result": "96 % of control"},
      {"measurement": "T/C", "setting": "endpoint: mean survival time, dose: 200.0 mg/kg/injection, schedule: Q04DX003 (ip), vehicle: saline", "result": "93 % of control"},
      {"measurement": "T/C", "setting": "endpoint: mean survival time, dose: 400.0 mg/kg/injection, schedule: Q04DX003 (ip), vehicle: Klucel (hydroxypropylcellulose) (HPC)", "result": "106 % of control"},
      {"measurement": "T/C", "setting": "endpoint: mean survival time, dose: 400.0 mg/kg/injection, schedule: Q04DX003 (ip), vehicle: saline", "result": "98 % of control"}
    ]},
    {"smiles": "CCCC1CC[N-]CC1.CCCC1CC[N-]CC1.CCCC1CC[N-]CC1.CCCC1CC[N-]CC1.CS(C)=O.CS(C)=O.[Cl-].[Cl-].[Cl-].[Cl-].[Cl][Rh][Cl].[Rh+3]", "values": [
      {"measurement": "T/C", "setting": "endpoint: mean survival time, dose: 6.25 mg/kg/injection, schedule: Q01DX009 (ip), vehicle: water", "result": "98 % of control"},
      {"measurement": "T/C", "setting": "endpoint: mean survival time, dose: 12.5 mg/kg/injection, schedule: Q01DX009 (ip), vehicle: water", "result": "112 % of control"},
      {"measurement": "T/C", "setting": "endpoint: mean survival time, dose: 25.0 mg/kg/injection, schedule: Q04DX003 (ip), vehicle: water", "result": "120 % of control"}
    ]},
    {"smiles": "O=S(=O)(Nc1cc(Cl)c(NS(=O)(=O)c2ccccc2)cc1Cl)c1ccccc1", "values": [
      {"measurement": "T/C", "setting": "[1]", "result": "96 % of control"},
      {"measurement": "T/C", "setting": "[2]", "result": "88 % of control"},
      {"measurement": "T/C", "setting": "[3]", "result": "93 % of control"}
    ]},
    {"smiles": "[Cl][Hg][c]1ccc2ccccc2c1", "values": [
      {"measurement": "T/C", "setting": "endpoint: mean survival time, dose: 12.5 mg/kg/injection, schedule: Q04DX002 (ip), vehicle: saline with Tween-80", "result": "90 % of control"},
      {"measurement": "T/C", "setting": "endpoint: mean survival time, dose: 25.0 mg/kg/injection, schedule: Q04DX002 (ip), vehicle: saline with Tween-80", "result": "102 % of control"},
      {"measurement": "T/C", "setting": "endpoint: mean survival time, dose: 50.0 mg/kg/injection, schedule: Q04DX002 (ip), vehicle: saline with Tween-80", "result": "111 % of control"}
    ]},
    {"smiles": "NC(CSC(c1ccccc1)(c1ccccc1)c1ccc(-c2ccccc2)cc1)C(=O)O", "note": "(stereo unspecified)", "values": [
      {"measurement": "T/C", "setting": "endpoint: mean survival time, dose: 50.0 mg/kg/injection, schedule: Q01DX009 (ip), vehicle: saline", "result": "111 % of control"},
      {"measurement": "T/C", "setting": "endpoint: mean survival time, dose: 100.0 mg/kg/injection, schedule: Q01DX009 (ip), vehicle: saline", "result": "108 % of control"},
      {"measurement": "T/C", "setting": "endpoint: mean survival time, dose: 200.0 mg/kg/injection, schedule: Q01DX009 (ip), vehicle: saline", "result": "105 % of control"},
      {"measurement": "T/C", "setting": "endpoint: mean survival time, dose: 400.0 mg/kg/injection, schedule: Q01DX009 (ip), vehicle: saline", "result": "100 % of control"}
    ]},
    {"smiles": "CC(=O)C(C)OS(C)(=O)=O", "note": "(stereo unspecified)", "values": [
      {"measurement": "T/C", "setting": "endpoint: mean survival time, dose: 25.0 mg/kg/injection, schedule: Q04DX003 (ip), vehicle: saline with Tween-80", "result": "108 % of control"},
      {"measurement": "T/C", "setting": "endpoint: mean survival time, dose: 50.0 mg/kg/injection, schedule: Q04DX003 (ip), vehicle: saline with Tween-80", "result": "108 % of control"},
      {"measurement": "T/C", "setting": "[4]", "result": "109 % of control"},
      {"measurement": "T/C", "setting": "[5]", "result": "120 % of control"}
    ]},
    {"smiles": "CCOC(=O)C1C(=O)N(c2ccccc2)C(=O)N1Cc1ccccc1", "note": "(stereo unspecified)", "values": [
      {"measurement": "T/C", "setting": "endpoint: mean survival time, dose: 12.5 mg/kg/injection, schedule: Q01DX009 (ip), vehicle: other", "result": "98 % of control"},
      {"measurement": "T/C", "setting": "endpoint: mean survival time, dose: 25.0 mg/kg/injection, schedule: Q01DX009 (ip), vehicle: other", "result": "98 % of control"},
      {"measurement": "T/C", "setting": "endpoint: mean survival time, dose: 50.0 mg/kg/injection, schedule: Q01DX009 (ip), vehicle: other", "result": "97 % of control"},
      {"measurement": "T/C", "setting": "endpoint: mean survival time, dose: 100.0 mg/kg/injection, schedule: Q01DX009 (ip), vehicle: other", "result": "95 % of control"},
      {"measurement": "T/C", "setting": "endpoint: mean survival time, dose: 200.0 mg/kg/injection, schedule: Q01DX009 (ip), vehicle: other", "result": "86 % of control"}
    ]},
    {"smiles": "NC(=O)Cn1cnnn1", "values": [
      {"measurement": "T/C", "setting": "[1]", "result": "102 % of control"},
      {"measurement": "T/C", "setting": "endpoint: mean survival time, dose: 100.0 mg/kg/injection, schedule: Q01DX009 (ip), vehicle: saline with Tween-80", "result": "98 % of control"},
      {"measurement": "T/C", "setting": "[4]", "result": "101 % of control"},
      {"measurement": "T/C", "setting": "[2]", "result": "100 % of control"},
      {"measurement": "T/C", "setting": "endpoint: mean survival time, dose: 200.0 mg/kg/injection, schedule: Q01DX009 (ip), vehicle: saline with Tween-80", "result": "101 % of control"},
      {"measurement": "T/C", "setting": "[5]", "result": "95 % of control"},
      {"measurement": "T/C", "setting": "[3]", "result": "96 % of control"},
      {"measurement": "T/C", "setting": "endpoint: mean survival time, dose: 400.0 mg/kg/injection, schedule: Q01DX009 (ip), vehicle: saline with Tween-80", "result": "98 % of control"},
      {"measurement": "T/C", "setting": "endpoint: mean survival time, dose: 400.0 mg/kg/injection, schedule: Q04DX003 (ip), vehicle: saline with Tween-80", "result": "95 % of control"}
    ]},
    {"smiles": "O=C(COc1cccc(Cl)c1)NCc1ccccc1NC(=O)Nc1cccc(S(=O)(=O)F)c1", "values": [
      {"measurement": "T/C", "setting": "[1]", "result": "88 % of control"},
      {"measurement": "T/C", "setting": "[2]", "result": "89 % of control"},
      {"measurement": "T/C", "setting": "[3]", "result": "94 % of control"}
    ]},
    {"smiles": "CN(C)N=C1CCCCCC1", "values": [
      {"measurement": "T/C", "setting": "endpoint: mean survival time, dose: 75.0 mg/kg/injection, schedule: Q01DX001 (ip), vehicle: saline", "result": "102 % of control"},
      {"measurement": "T/C", "setting": "endpoint: mean survival time, dose: 150.0 mg/kg/injection, schedule: Q01DX001 (ip), vehicle: saline", "result": "98 % of control"}
    ]},
    {"smiles": "CCN(C(=O)Nc1ccc(OC)cc1)c1ccccc1", "values": [
      {"measurement": "T/C", "setting": "[4]", "result": "98 % of control"},
      {"measurement": "T/C", "setting": "[5]", "result": "95 % of control"}
    ]},
    {"smiles": "O=C(O)C(O)C(O)C(OC1OC(CO)C(O)C(O)C1O)C(O)CO.O=C(O)C(O)C(O)C(OC1OC(CO)C(O)C(O)C1O)C(O)CO.[NH-]C1CCCCC1[NH-].[Pt+2]", "note": "(stereo unspecified)", "values": [
      {"measurement": "T/C", "setting": "endpoint: median survival time, dose: 3.12 mg/kg/injection, schedule: Q04DX003 (ip), vehicle: saline", "result": "113 % of control"},
      {"measurement": "T/C", "setting": "endpoint: median survival time, dose: 6.25 mg/kg/injection, schedule: Q04DX003 (ip), vehicle: saline", "result": "121 % of control"},
      {"measurement": "T/C", "setting": "endpoint: median survival time, dose: 12.5 mg/kg/injection, schedule: Q04DX003 (ip), vehicle: saline", "result": "162 % of control"},
      {"measurement": "T/C", "setting": "endpoint: median survival time, dose: 25.0 mg/kg/injection, schedule: Q04DX003 (ip), vehicle: saline", "result": "195 % of control"},
      {"measurement": "T/C", "setting": "endpoint: median survival time, dose: 50.0 mg/kg/injection, schedule: Q04DX003 (ip), vehicle: saline", "result": "158 % of control and 365 % of control"},
      {"measurement": "T/C", "setting": "endpoint: median survival time, dose: 200.0 mg/kg/injection, schedule: Q04DX003 (ip), vehicle: saline", "result": "119 % of control"}
    ]}
  ]
}
